95 molecules from the Kinase Knowledgebase extract (Sharma et al. 2016) can be followed below.

pIC50: −log10 of the molar value.

The target of the test is MAPK14 (human) (UniProt Q16539). Kind of test: Inhibition of MAPK14 Kinase Activity.
Sequence of MAPK14 (human) (Q16539 whole entry, looked up): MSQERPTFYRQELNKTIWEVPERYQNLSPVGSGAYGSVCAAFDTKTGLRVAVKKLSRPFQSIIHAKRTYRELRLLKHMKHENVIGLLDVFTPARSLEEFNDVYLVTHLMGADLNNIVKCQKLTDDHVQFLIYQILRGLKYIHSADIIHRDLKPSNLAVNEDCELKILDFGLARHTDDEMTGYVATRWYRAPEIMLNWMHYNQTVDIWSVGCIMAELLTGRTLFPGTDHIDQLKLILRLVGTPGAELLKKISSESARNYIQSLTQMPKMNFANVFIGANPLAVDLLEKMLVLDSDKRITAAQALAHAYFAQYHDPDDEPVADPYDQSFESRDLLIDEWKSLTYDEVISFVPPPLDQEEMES
By pIC50 is commonly meant −log10 of the IC50, conventionally taken in molar units. For the molecule `CC(=O)Nc1cc(Cl)c(N2CC(Cc3ccc(F)cc3F)CNC2=O)c(Cl)c1` (stereo not given), the pIC50 was not below 5.00.
Regarding `O=C(Cc1ccccc1)NC1CCC(Cl)C(N2CC(Cc3ccc(F)cc3F)CCC2=O)C1Cl` (stereo not given), the pIC50 was not below 5.00.
Next, `CC(O)(c1ccc(F)cc1F)C1CCC(=O)N(c2c(Cl)cccc2Cl)C1` (stereo not given): not below 5.00; `COc1ccc(CC2CN(C)C(=O)N(c3c(Cl)cccc3Cl)C2)cc1` (stereo not given): not below 5.00; `Cc1ccc2ccccc2c1N1CC(Cc2ccc(F)cc2F)CCC1=O` (stereo not given): not below 5.00.
Turning to `O=C1CCC(Sc2ccccc2Cl)CN1C1C(Cl)CCCC1Cl` (stereo not given), the negative logarithm of the IC50 (pIC50) was not below 5.00.
As for `Cc1ccccc1SC1CCC(=O)N(c2c(Cl)cccc2Cl)C1` (stereo not given), the figure is not below 5.00; as for `Cc1ccc(CC2CN(c3c(Cl)cccc3Cl)C(=O)CO2)cc1` (stereo not given), not below 5.00; as for `CC(C)(C)OC(=O)Nc1cc(Cl)c(N2CC(Cc3ccc(F)cc3F)CCC2=O)c(Cl)c1` (stereo not given), not below 5.00.
For the molecule `Cc1cc(C(=O)NCCC(=O)O)cc(C)c1N1CC(Cc2ccc(F)cc2F)CCC1=O` (stereo not given), the pIC50 was not below 5.00.
As for `O=C1OCC(Cc2cc(Cl)cc(Cl)c2)CN1c1c(Cl)cccc1Cl` (stereo not given), the figure is not below 5.00; as for `O=C1CC/C(=C\c2ccc(F)cc2F)CN1c1c(Cl)cc(Br)cc1Cl`, not below 5.00; as for `CNC1CCC(Cl)C(N2CC(Sc3ccc(F)cc3F)CCC2=O)C1Cl` (stereo not given), not below 5.00.
Next, `O=C1CCC(Cc2ccc(F)cc2F)CN1c1c(Cl)cc(Br)cc1Cl` (stereo not given): not below 5.00.
As for `Cc1ccc(OC2CCC(=O)N(c3c(Cl)ccnc3Cl)C2)c(C)c1` (stereo not given), the figure is not below 5.00.
`O=C1CCC(Cc2ccc(Cl)cc2Cl)CN1c1c(Cl)cccc1Cl` (stereo not given) gave a pIC50 not below 5.00.
Next, `O=C(Cc1ccccc1)Nc1cnc(Cl)c(N2CC(Sc3ccc(F)cc3F)CCC2=O)c1Cl` (stereo not given): not below 5.00; `O=C1CCC(Oc2cccc3ccccc23)CN1c1c(Cl)csc1Cl` (stereo not given): not below 5.00.
In turn, `CN(C)CCCc1cc(Cl)c(N2CC(Cc3ccc(F)cc3F)CCC2=O)c(Cl)c1` (stereo not given) showed a pIC50 not below 5.00.
Molecule `CC(=O)NCCNc1cc(Cl)c(N2CC(Cc3ccc(F)cc3F)CCC2=O)c(Cl)c1` (stereo not given) showed a pIC50 not below 5.00.
Next, `O=C1CCC(Sc2ccc(Cl)cc2Cl)CN1c1c(Cl)ccnc1Cl` (stereo not given): not below 5.00; `O=C1CCC(Sc2ccc(F)cc2F)CN1c1c(Cl)cnc(O)c1Cl` (stereo not given): not below 5.00; `Cc1ccc(CC2CSC(=O)N(c3c(Cl)cccc3Cl)C2)cc1` (stereo not given): not below 5.00.
`CC(C)(C)OC(=O)N[C@@H](CO)C(=O)Nc1cc(Cl)c(N2CC(Cc3ccc(F)cc3F)CCC2=O)c(Cl)c1` (stereo not given in full): the negative logarithm of the IC50 (pIC50) was not below 5.00.
As for `Cc1cccc(C)c1N1C[C@@H](N(C)S(=O)(=O)c2ccc(F)cc2F)CCC1=O`, the negative-log IC50 (pIC50) is not below 5.00.
As for `O=C1CCC(Sc2ccc(F)cc2F)CN1C1C(Cl)CCCC1Cl` (stereo not given), the figure is not below 5.00; as for `COc1ccccc1CC1COC(=O)N(c2c(Cl)cccc2Cl)C1` (stereo not given), not below 5.00.
As for `O=C1CCC(Cc2ccc(F)cc2F)CN1c1c(Cl)cc(NC2CCNCC2)cc1Cl` (stereo not given), the figure is not below 5.00; as for `Cc1ccc(CC2CNC(=O)N(c3c(Cl)cccc3Cl)C2)c(C)c1` (stereo not given), not below 5.00.
On to `O=C1CCC(Sc2ccc(F)cc2F)CN1c1c(Cl)ccc(O)c1Cl` (stereo not given), for which the negative-log IC50 (pIC50) is not below 5.00.
As for `Cc1ccc(CC2CNC(=O)N(c3c(Cl)cccc3Cl)C2)cc1` (stereo not given), the figure is not below 5.00.
Next, `Cc1cc(C#CCCCO)cc(C)c1N1CC(Cc2ccc(F)cc2F)CCC1=O` (stereo not given): not below 5.00; `Nc1ccc(CC2CCC(=O)N(c3c(Cl)cccc3Cl)C2)cc1` (stereo not given): not below 5.00; `CNc1ccc(Cl)c(N2CC(Cc3ccc(F)cc3F)CCC2=O)c1Cl` (stereo not given): not below 5.00.
Next, `CNc1ncc(Cl)c(N2CC(Cc3ccc(F)cc3F)CCC2=O)c1Cl` (stereo not given): not below 5.00.
As to `O=C(Cc1ccccc1)Nc1cc(Cl)c(N2CC(Oc3ccc(F)cc3F)CCC2=O)c(Cl)n1` (stereo not given), the pIC50 is not below 5.00.
As for `Nc1cc(Cl)c(N2CC(Cc3ccccc3)CCC2=O)c(Cl)c1` (stereo not given), the figure is not below 5.00; as for `CN(C)CCNc1cc(Cl)c(N2CC(Cc3ccccc3F)CCC2=O)c(Cl)c1` (stereo not given), not below 5.00; as for `Cc1cc(C#CCCN2CCN(C)CC2)cc(C)c1N1CC(Cc2ccc(F)cc2F)CCC1=O` (stereo not given), not below 5.00.
Next, `Nc1ccc(N2CC(Cc3ccc(F)cc3F)CCC2=O)c(Cl)c1` (stereo not given): not below 5.00.
`O=C1CCC(Cc2ccc(F)cc2F)CN1c1c(Cl)cc(COC(c2ccccc2)(c2ccccc2)c2ccccc2)cc1Cl` (stereo not given) showed a pIC50 not below 5.00.
Next, `O=C1CCC(Cc2ccccc2Cl)CN1c1c(Cl)ccnc1Cl` (stereo not given): not below 5.00; `CCOC(=O)CNc1cc(Cl)c(N2CC(Cc3ccc(F)cc3F)CCC2=O)c(Cl)c1` (stereo not given): not below 5.00.
As for `O=C1CCC(Cc2ccc(F)cc2F)CN1c1c(Cl)sc(O)c1Cl` (stereo not given), the figure is not below 5.00.
Next, `O=C1CSC(Cc2ccccc2)CN1c1c(Cl)cccc1Cl` (stereo not given): not below 5.00; `COc1ccc(OC2CCC(=O)N(c3c(Cl)cccc3Cl)C2)cc1` (stereo not given): not below 5.00; `O=C1SCC(Cc2ccc(F)cc2F)CN1c1c(Cl)cc(O)cc1Cl` (stereo not given): not below 5.00.
In turn, `Cc1ccc(SC2CCC(=O)N(C3C(Cl)CCCC3Cl)C2)c(C)c1` (stereo not given) had a negative logarithm of the IC50 (pIC50) not below 5.00.
As for `NC(=O)CNc1cc(Cl)c(N2CC(Cc3ccc(F)cc3F)CCC2=O)c(Cl)c1` (stereo not given), the figure is not below 5.00.
Next, `CC(c1ccc(F)cc1F)C1CCC(=O)N(c2c(Cl)cccc2Cl)C1` (stereo not given): not below 5.00; `Cc1cc(C)cc(OC2CCC(=O)N(C3C(Cl)CCCC3Cl)C2)c1` (stereo not given): not below 5.00; `O=C1CCC(Cc2ccc(F)cc2F)CN1c1c(Cl)cc(NCc2ccccn2)cc1Cl` (stereo not given): not below 5.00.
As for `CNc1cc(Cl)c(N2CC(Cc3ccc(F)cc3F)COC2=O)c(Cl)c1` (stereo not given), the figure is not below 5.00; as for `O=C1CCC(Cc2ccc(F)cc2F)CN1c1c(Cl)cnc(O)c1Cl` (stereo not given), not below 5.00.
For the molecule `O=C1CCC(Sc2ccc(F)cc2F)CN1c1c(Cl)ncc(CO)c1Cl` (stereo not given), the negative-log IC50 (pIC50) is not below 5.00.
In turn, `CN1CC(Cc2ccc(F)cc2F)CN(c2c(Cl)cc(CO)cc2Cl)C1=O` (stereo not given) showed a pIC50 not below 5.00.
As for `O=C1CCC(Cc2cccc3ccccc23)CN1c1c(Cl)cccc1Cl` (stereo not given), the figure is not below 5.00; as for `O=C(O)CNc1ccc(Cl)c(N2CC(Cc3ccc(F)cc3F)CCC2=O)c1` (stereo not given), not below 5.00.
`CNc1cc(Cl)c(N2CC(Cc3ccc(F)cc3F)CCC2=O)c(Cl)c1` (stereo not given) gave a negative logarithm of the IC50 (pIC50) not below 5.00.
As for `O=C1NCC(Cc2ccc(F)cc2F)CN1c1c(Cl)cc(O)cc1Cl` (stereo not given), the figure is not below 5.00.
As for `CC(=O)Nc1ncc(Cl)c(N2CC(Oc3ccc(F)cc3F)CCC2=O)c1Cl` (stereo not given), the figure is not below 5.00.
Next, `Cc1ccc(CC2CN(C)C(=O)N(c3c(Cl)cccc3Cl)C2)c(C)c1` (stereo not given): not below 5.00.
In turn, `Cc1cc(C(=O)N(C)C)cc(C)c1N1CC(Cc2ccc(F)cc2F)CCC1=O` (stereo not given) had a pIC50 not below 5.00.
As for `CC(=O)N(C)c1cc(Cl)c(N2CC(Cc3ccc(F)cc3F)CCC2=O)c(Cl)c1` (stereo not given), the figure is not below 5.00.
Next, `O=C1CCC(Sc2ccc(F)cc2F)CN1c1c(Cl)sc(CO)c1Cl` (stereo not given): not below 5.00; `O=C1CCC(Oc2ccc(F)cc2F)CN1c1c(Cl)cnc(O)c1Cl` (stereo not given): not below 5.00; `O=C1CCC(Cc2ccccc2Cl)CN1c1c(Cl)cccc1Cl` (stereo not given): not below 5.00.
Next, `O=C1CCC(Cc2ccc(F)cc2F)CN1c1c(Cl)ccc(O)c1Cl` (stereo not given): not below 5.00.
The molecule `O=C1CCC(C(=NO)c2ccc(F)cc2F)CN1c1c(Cl)cccc1Cl` (stereo not given) had a pIC50 not below 5.00.
For the molecule `N[C@@H](Cc1ccc(O)cc1)C(=O)Nc1cc(Cl)c(N2CC(Cc3ccc(F)cc3F)CCC2=O)c(Cl)c1` (stereo not given in full), the pIC50 is not below 5.00.
For `O=C(Cc1ccccc1)Nc1sc(Cl)c(N2CC(Cc3ccc(F)cc3F)CCC2=O)c1Cl` (stereo not given), the negative-log IC50 (pIC50) is not below 5.00.
Next, `O=C1CCC(Oc2cc(Cl)cc(Cl)c2)CN1c1c(Cl)cncc1Cl` (stereo not given): not below 5.00.
Next, `O=C1CSC(Cc2cc(F)cc(F)c2)CN1c1c(Cl)cccc1Cl` (stereo not given): not below 5.00; `O=C1CCC(Oc2ccc(F)cc2F)CN1c1c(Cl)cncc1Cl` (stereo not given): not below 5.00.
Next, `O=C1CCC(Cc2ccc3ccccc3c2)CN1c1c(Cl)ccnc1Cl` (stereo not given): not below 5.00; `O=C(Cc1ccccc1)Nc1cc(Cl)c(N2CC(Cc3ccc(F)cc3F)SCC2=O)c(Cl)c1` (stereo not given): not below 5.00; `O=C1SCC(Cc2ccc(Cl)cc2)CN1c1c(Cl)cccc1Cl` (stereo not given): not below 5.00.
`COC(=O)/C=C/c1cc(C)c(N2CC(Cc3ccc(F)cc3F)CCC2=O)c(C)c1` (stereo not given) showed a negative logarithm of the IC50 (pIC50) not below 5.00.
Turning to `O=C(Cc1ccccc1)Nc1ccc(Cl)c(N2CC(Cc3ccc(F)cc3F)CSC2=O)c1Cl` (stereo not given), the pIC50 was not below 5.00.
Next, `Cc1cc(C)cc(CC2CCC(=O)N(c3c(Cl)cncc3Cl)C2)c1` (stereo not given): not below 5.00.
For `O=C1CCC(Sc2ccc(F)cc2F)CN1c1c(Cl)cc(O)cc1Cl` (stereo not given), the pIC50 was not below 5.00.
Next, `O=C(NCc1ccccc1CC1CCC(=O)N(c2c(Cl)cccc2Cl)C1)Nc1cccc(C(F)(F)F)c1` (stereo not given): not below 5.00; `O=C(Cc1ccccc1)Nc1cc(Cl)c(N2CC(Cc3ccc(F)cc3F)OCC2=O)c(Cl)c1` (stereo not given): not below 5.00; `COc1ccc(OC2CCC(=O)N(c3c(Cl)csc3Cl)C2)cc1` (stereo not given): not below 5.00.
As for `O=C1CCC(Cc2ccc3ccccc3c2)CN1C1C(Cl)CCCC1Cl` (stereo not given), the figure is not below 5.00; as for `O=C1CCC(Cc2ccc(F)cc2F)(Cc2ccc(F)cc2F)CN1c1c(Cl)cccc1Cl`, not below 5.00.
On to `C[C@@H]1C[C@H](Cc2ccc(F)cc2F)CN(c2c(Cl)cc(NCCN(C)C)cc2Cl)C1=O`, for which the pIC50 is not below 5.00.
Next, `N#CCCc1cc(Cl)c(N2CC(Cc3ccc(F)cc3F)CCC2=O)c(Cl)c1` (stereo not given): not below 5.00.
As for `Cc1cccc(C)c1N1C[C@@H](N(CCO)S(=O)(=O)c2ccc(F)cc2F)CCC1=O`, the figure is not below 5.00; as for `O=C1SCC(Cc2cc(F)cc(F)c2)CN1c1c(Cl)cccc1Cl` (stereo not given), not below 5.00; as for `Cc1cc(C#CCN(C)C)cc(C)c1N1C[C@@H](Cc2ccc(F)cc2F)C[C@@H](C)C1=O`, not below 5.00.
Next, `Cc1cc(C)cc(CC2COC(=O)N(c3c(Cl)cccc3Cl)C2)c1` (stereo not given): not below 5.00; `Cc1ccc(SC2CCC(=O)N(c3c(Cl)cncc3Cl)C2)cc1` (stereo not given): not below 5.00; `O=C1CCC(Sc2ccc3ccccc3c2)CN1c1c(Cl)ccnc1Cl` (stereo not given): not below 5.00.
`CC(=O)Nc1sc(Cl)c(N2CC(Cc3ccc(F)cc3F)CCC2=O)c1Cl` (stereo not given) had a negative-log IC50 (pIC50) not below 5.00.
